Source: patent US20250230193A1, “CYCLIC COMPOUND HAVING SELECTIVE KRAS INHIBITORY EFFECT ON HRAS AND NRAS” (CHUGAI SEIYAKU KABUSHIKI KAISHA, priority 2022, published 2025)

Assays:
[1] = target: GDP-bound NRAS wild-type protein (Homo sapiens, UniProt P01111); assay: Binding to NRAS by surface plasmon resonance (SPR), Single Cycle Kinetics; settings: KD ratio NRAS/KRAS, class symbols
[2] = target: GDP-bound HRAS wild-type protein (Homo sapiens, UniProt P01112); assay: Binding to HRAS by surface plasmon resonance (SPR), Single Cycle Kinetics; settings: KD ratio HRAS/KRAS, class symbols
Sequence of GDP-bound HRAS wild-type protein (P01112 whole entry): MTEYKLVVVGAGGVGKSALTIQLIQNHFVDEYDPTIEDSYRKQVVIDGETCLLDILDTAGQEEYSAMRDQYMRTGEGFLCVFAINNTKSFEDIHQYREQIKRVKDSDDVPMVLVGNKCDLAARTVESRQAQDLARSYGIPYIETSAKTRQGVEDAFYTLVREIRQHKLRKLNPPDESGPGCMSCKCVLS

Sequence of GDP-bound NRAS wild-type protein (P01111 whole entry): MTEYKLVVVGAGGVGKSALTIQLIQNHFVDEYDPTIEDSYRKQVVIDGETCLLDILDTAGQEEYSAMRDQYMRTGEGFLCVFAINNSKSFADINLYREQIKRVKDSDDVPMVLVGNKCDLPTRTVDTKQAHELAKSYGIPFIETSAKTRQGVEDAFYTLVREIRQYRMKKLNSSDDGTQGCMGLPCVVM

Structure (SMILES)	NRAS/KRAS (ratio of KD value with respect to GDP-bound NRAS wild-type protein to KD value with respect to KRAS) [1]	HRAS/KRAS (ratio of KD value with respect to GDP-bound HRAS wild-type protein to KD value with respect to KRAS) [2]
CCC[C@H]1C(=O)N[C@@H]([C@@H](C)CC)C(=O)N(C)CC(=O)N(C)[C@H]2C/C=C\CCN(C2=O)[C@@H](Cc2ccc(C(F)(F)F)cc2)C(=O)N(C)CC(=O)N[C@@H](CCc2ccc3sc(F)c(C)c3c2)C(=O)N2C[C@H](OCC)C[C@H]2C(=O)NC2(CC(C)(C)C2)C(=O)N(C)[C@@H](C2CCCC2)C(=O)N(C)[C@H](C(=O)N(C)C)CC(=O)N1C [PP2948]	A (a compound having 10 or more and less than 20 is denoted as A)	A (a compound having 10 or more and less than 20 is denoted as A)
CCC[C@H]1C(=O)N[C@@H]([C@@H](C)CC)C(=O)N(C)CC(=O)N(C)[C@H]2C/C=C\CCN(C2=O)[C@@H](Cc2ccc(C)cc2)C(=O)N(C)CC(=O)N[C@@H](CCc2ccc3sc(F)c(C)c3c2)C(=O)N2C[C@H](OCC)C[C@H]2C(=O)NC2(CC(C)(C)C2)C(=O)N(C)[C@@H](C2CCCC2)C(=O)N(C)[C@H](C(=O)N(C)C)CC(=O)N1C [PP2949]	A (a compound having 10 or more and less than 20 is denoted as A)	A (a compound having 10 or more and less than 20 is denoted as A)
CCC[C@H]1C(=O)N[C@@H]([C@@H](C)CC)C(=O)N(C)CC(=O)N(C)[C@H]2C/C=C\CCN(C2=O)[C@@H](Cc2ccc(C(F)(F)F)cc2)C(=O)N(C)CC(=O)N[C@@H](CCc2cc(Cl)c3c(ccn3C)c2)C(=O)N2C[C@H](OCC)C[C@H]2C(=O)NC2(CC(C)(C)C2)C(=O)N(C)[C@@H](C2CCCC2)C(=O)N(C)[C@H](C(=O)N(C)C)CC(=O)N1C [PP2950]	A (a compound having 10 or more and less than 20 is denoted as A)	A (a compound having 10 or more and less than 20 is denoted as A)
CCC[C@H]1C(=O)N[C@@H]([C@@H](C)CC)C(=O)N(C)CC(=O)N(C)[C@H]2C/C=C\CCN(C2=O)[C@@H](Cc2ccc(C)cc2)C(=O)N(C)CC(=O)N[C@@H](CCc2cc(Cl)c3c(ccn3C)c2)C(=O)N2C[C@H](OCC)C[C@H]2C(=O)NC2(CC(C)(C)C2)C(=O)N(C)[C@@H](C2CCCC2)C(=O)N(C)[C@H](C(=O)N(C)C)CC(=O)N1C [PP2951]	A (a compound having 10 or more and less than 20 is denoted as A)	A (a compound having 10 or more and less than 20 is denoted as A)
CCO[C@@H]1C[C@H]2C(=O)NC3(CC(C)(C)C3)C(=O)N(C)[C@@H](C(CC)CC)C(=O)N(C)[C@H](C(=O)N3CCCCC3)CC(=O)N(C)[C@H]3CCC/C=C/c4ccc(cc4)C[C@@H](C(=O)N(C)CC(=O)N[C@@H](CCc4cc(F)c(C(F)(F)F)c(F)c4)C(=O)N2C1)N1CC/C=C\C[C@@H](C1=O)N(C)C(=O)CN(C)C(=O)[C@H]([C@@H](C)CC)NC3=O [PP2952]	AA (a compound having 20 or more is denoted as AA)	A (a compound having 10 or more and less than 20 is denoted as A)
CCO[C@@H]1C[C@H]2C(=O)NC3(CC(C)(C)C3)C(=O)N(C)[C@@H](C(CC)CC)C(=O)N(C)[C@H](C(=O)N3CCCCC3)CC(=O)N(C)[C@H]3CCC/C=C/c4ccc(cc4)C[C@@H](C(=O)N(C)CC(=O)N[C@@H](CCc4ccc(Cl)c(Cl)c4)C(=O)N2C1)N1CC/C=C\C[C@@H](C1=O)N(C)C(=O)CN(C)C(=O)[C@H]([C@@H](C)CC)NC3=O [PP2953]	AA (a compound having 20 or more is denoted as AA)	A (a compound having 10 or more and less than 20 is denoted as A)
CCO[C@@H]1C[C@H]2C(=O)NC3(CCC3)C(=O)N(C)[C@@H](C3CCCC3)C(=O)N(C)[C@H](C(=O)N3CCCCC3)CC(=O)N(C)[C@H]3CCC/C=C/c4ccc(cc4)C[C@@H](C(=O)N(C)CC(=O)N[C@@H](CCc4cc(F)c(C(F)(F)F)c(F)c4)C(=O)N2C1)N1CC/C=C\C[C@@H](C1=O)N(C)C(=O)CN(C1CC1)C(=O)[C@H]([C@@H](C)CC)NC3=O [PP2954]	A (a compound having 10 or more and less than 20 is denoted as A)	A (a compound having 10 or more and less than 20 is denoted as A)
CCO[C@@H]1C[C@H]2C(=O)NC3(CC(C)(C)C3)C(=O)N(C)[C@@H](C(CC)CC)C(=O)N(C)[C@H](C(=O)N(C)C)CC(=O)N(C)[C@H]3CCC/C=C/c4ccc(cc4)C[C@@H](C(=O)N(C)CC(=O)N[C@@H](CCc4cc(F)c(C(F)(F)F)c(F)c4)C(=O)N2C1)N1CC/C=C\C[C@@H](C1=O)N(C)C(=O)CN(C1CC1)C(=O)[C@H]([C@@H](C)CC)NC3=O [PP2955]	A (a compound having 10 or more and less than 20 is denoted as A)	A (a compound having 10 or more and less than 20 is denoted as A)
CCO[C@@H]1C[C@H]2C(=O)NC3(CCC3)C(=O)N(C)[C@@H](C(CC)CC)C(=O)N(C)[C@H](C(=O)N3CCCCC3)CC(=O)N(C)[C@H]3CCC/C=C/c4ccc(cc4)C[C@@H](C(=O)N(C)CC(=O)N[C@@H](CCc4cc(F)c(C(F)(F)F)c(F)c4)C(=O)N2C1)N1CC/C=C\C[C@@H](C1=O)N(C)C(=O)CN(C1CC1)C(=O)[C@H]([C@@H](C)CC)NC3=O [PP2956]	AA (a compound having 20 or more is denoted as AA)	A (a compound having 10 or more and less than 20 is denoted as A)
CCO[C@@H]1C[C@H]2C(=O)NC3(CCC3)C(=O)N(C)[C@@H](C(CC)CC)C(=O)N(C)[C@H](C(=O)N3CCCC3)CC(=O)N(C)[C@H]3CCC/C=C/c4ccc(cc4)C[C@@H](C(=O)N(C)CC(=O)N[C@@H](CCc4cc(F)c(C(F)(F)F)c(F)c4)C(=O)N2C1)N1CC/C=C\C[C@@H](C1=O)N(C)C(=O)CN(C1CC1)C(=O)[C@H]([C@@H](C)CC)NC3=O [PP2957]	AA (a compound having 20 or more is denoted as AA)	A (a compound having 10 or more and less than 20 is denoted as A)
CCO[C@@H]1C[C@H]2C(=O)NC3(CCC3)C(=O)N(C)[C@@H](C3CCCC3)C(=O)N(C)[C@H](C(=O)N3CCCCC3)CC(=O)N(C)[C@H]3CCC/C=C/c4ccc(cc4)C[C@@H](C(=O)N(C)CC(=O)N[C@@H](CCc4ccc(Cl)c(Cl)c4)C(=O)N2C1)N1CC/C=C\C[C@@H](C1=O)N(C)C(=O)CN(C1CC1)C(=O)[C@H]([C@@H](C)CC)NC3=O [PP2958]	AA (a compound having 20 or more is denoted as AA)	A (a compound having 10 or more and less than 20 is denoted as A)
